Among the data in PubChem BioAssay (NCI) are GI50 and TGI values, retold here.

The term GI50 denotes the concentration that inhibits growth by half. The term TGI denotes the concentration at which net growth stops.

Test systems include ACHN renal; UACC-257 melanoma; KM12 colon; OVCAR-8 ovarian; BT-549 breast; SW-620 colon; HCT-15 colon; PC-3 prostate; OVCAR-5 ovarian; MCF7 breast.
Common to all, as to experiment: DTP human tumour cell line panel, 48 h

Several values for one entry are separate records, joined by “and”; a condition that tells them apart may be missing. Equal values may be shown once.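 In this assay, cells in 96-well plates receive the compound at five concentrations for 48 hours. Endpoints are linearly interpolated between the surrounding concentrations. The concentration for 50% growth inhibition is given as GI50. At the TGI there is no net growth.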

In the case of `COc1cc(N2CCN(C(C)C)CC2)ccc1Nc1nc(Nc2ccc(F)cc2C(=O)NCC(O)CO)c2cc[nH]c2n1` (stereo unspecified), the GI50 is greater than 25 µM in the test on ACHN renal; 2.87 µM in the test with UACC-257 melanoma; 10.6 µM in the test with KM12 colon; 16.3 µM with OVCAR-8 ovarian; 8.23 µM in the test on BT-549 breast; 2.05 µM in the test on SW-620 colon. Besides, the GI50 in the test with HCT-15 colon was greater than 25 µM; in the test on PC-3 prostate it was greater than 25 µM; in the test with OVCAR-5 ovarian, 4.28 µM; in the test with MCF7 breast, 0.276 µM. Further, the TGI in the test with ACHN renal, in the test with UACC-257 melanoma, in the test with KM12 colon, in the test on OVCAR-8 ovarian, in the test with BT-549 breast and in the test on SW-620 colon was greater than 25 µM throughout. In addition, the total growth inhibition concentration (TGI) with HCT-15 colon, in the test on PC-3 prostate, in the test on OVCAR-5 ovarian and in the test with MCF7 breast was greater than 25 µM throughout.
On to `CCSc1nc(NC(C)c2ccccc2)c2cnn(CO)c2n1` (stereo unspecified), for which the GI50 is 76 µM in the test with ACHN renal; 6.91 µM in the test on UACC-257 melanoma; 42.1 µM with KM12 colon; 99.3 µM in the test on OVCAR-8 ovarian; 17.7 µM in the test on BT-549 breast; 67.9 µM in the test on SW-620 colon. The GI50 in the test on HCT-15 colon is 70.2 µM; in the test with PC-3 prostate, 38.5 µM; in the test on OVCAR-5 ovarian, greater than 100 µM; in the test with MCF7 breast it was 52.8 µM. The TGI in the test on ACHN renal was greater than 100 µM; in the test with UACC-257 melanoma it was greater than 100 µM; with KM12 colon, greater than 100 µM; in the test with OVCAR-8 ovarian, greater than 100 µM; in the test on BT-549 breast it was 64.1 µM; in the test on SW-620 colon, greater than 100 µM. Also, the concentration for total growth inhibition (TGI) in the test on HCT-15 colon, in the test with PC-3 prostate, with OVCAR-5 ovarian and with MCF7 breast was greater than 100 µM each time.
In the case of `COC(=O)[C@H](Cc1ccccc1)NNC(=O)c1csc([C@@H](C[C@H](C(C)C)N(C)C(=O)[C@@H](NC(=O)[C@H]2CCCCN2C)C2CC2)OC(C)=O)n1`, the TGI in the test with ACHN renal was 25 µM and > 100 µM; in the test on UACC-257 melanoma it was greater than 100 µM; with KM12 colon, 25 µM and > 100 µM; in the test on OVCAR-8 ovarian it was 25 µM and > 100 µM; with BT-549 breast, 0.317 µM and 0.973 µM; in the test on SW-620 colon, 25 µM and > 100 µM. Besides, the TGI in the test on HCT-15 colon was 25 µM and > 100 µM; in the test with PC-3 prostate it was 25 µM and > 100 µM; with OVCAR-5 ovarian it was 25 µM and > 100 µM; in the test on MCF7 breast, 25 µM and > 100 µM. Also, the concentration for 50% growth inhibition (GI50) in the test on MCF7 breast is 0.00392 µM and 0.0025 µM and 0.0244 µM.
With `COc1ccc(C2=NN(C=O)C(c3ccc(OS(=O)(=O)c4ccc(C)cc4)c(OC)c3)C2)cc1` (stereo unspecified), the GI50 with ACHN renal is 10.1 µM; in the test with UACC-257 melanoma, 4.22 µM; in the test on KM12 colon it was 9.23 µM; in the test on OVCAR-8 ovarian, 10.2 µM; in the test on BT-549 breast, 3.35 µM; in the test with SW-620 colon it was 5.31 µM. The GI50 with HCT-15 colon is 4.19 µM; in the test on PC-3 prostate, 3.34 µM; in the test on OVCAR-5 ovarian, greater than 100 µM; in the test on MCF7 breast, 3.7 µM. In addition, the TGI in the test on ACHN renal was greater than 100 µM; with UACC-257 melanoma it was greater than 100 µM; with KM12 colon, greater than 100 µM; with OVCAR-8 ovarian, greater than 100 µM; with BT-549 breast, 58.1 µM; in the test on SW-620 colon, greater than 100 µM. Besides, the TGI in the test with HCT-15 colon, with PC-3 prostate, with OVCAR-5 ovarian and in the test on MCF7 breast was greater than 100 µM in each case.
For the molecule `Cc1ccc(/C=C(/C#N)n2nnc3ncccc32)cc1`, the GI50 in the test with ACHN renal is 2.66 µM; with UACC-257 melanoma it was 4.24 µM; in the test on KM12 colon it was 2.11 µM; with OVCAR-8 ovarian, 3.16 µM; in the test on BT-549 breast, 2.46 µM; in the test on SW-620 colon, 1.2 µM. Further, the GI50 in the test with HCT-15 colon was 1.45 µM; in the test on PC-3 prostate it was 4.18 µM; in the test with OVCAR-5 ovarian it was 2.49 µM; in the test on MCF7 breast it was 2.37 µM. The TGI with ACHN renal was 13.4 µM; in the test with UACC-257 melanoma, 22.2 µM; in the test with KM12 colon it was 14.9 µM; in the test with OVCAR-8 ovarian, greater than 100 µM; in the test on BT-549 breast, 19.7 µM; in the test on SW-620 colon it was 12 µM. For the same molecule, the concentration for total growth inhibition (TGI) was 16.7 µM in the test on HCT-15 colon, 21.2 µM with PC-3 prostate, 10.1 µM in the test with OVCAR-5 ovarian and 18.1 µM in the test with MCF7 breast.
